9 compounds from PubChem BioAssay (NCI) can be followed below.

Molecules are shown by their SMILES.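 Grown in 96-well plates, cells were treated for 48 hours with each compound at five concentrations. Insufficient inhibition: endpoint recorded as highest concentration tested. GI50 is the concentration that inhibits growth by half. TGI denotes the concentration required for complete inhibition of growth.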

Holding throughout (assay): inhibition of tumour cell growth, NCI panel, 48 h
The subject of assay [1] is CAKI-1 renal.
For assay [2], the system named is HOP-92 NSCLC.
Assay [3] has as its system IGROV1 ovarian.
For assay [4], the system named is LOX IMVI melanoma.
Assay [5] relates to MOLT-4 leukemia.
Assay [6] concerns OVCAR-5 ovarian.
In assay [7] the test system is SF-295 CNS.
Assay [8] has as its system SK-MEL-5 melanoma.
Assay [9] deals with SW-620 colon.
In assay [10] the test system is UACC-257 melanoma.

Take `CC(C)(C)OC(=O)NCC(O)CNC(=O)OC(C)(C)C`: the TGI in [1], in [2], in assay [3], in [4], in [5] and in assay [6] was above 100 µM each time. In addition, the TGI in assay [7], in assay [8], in [9] and in [10] was above 100 µM each time.

`CCN1CCN(c2ccc(Nc3cc(N(C)C(=O)Nc4c(Cl)c(OC)cc(OC)c4Cl)ncn3)cc2)CC1`: the GI50 in [1] is 4.19 µM; in assay [2], 2280 nM; in [3], 4120 nM; in assay [4] it was 1480 nM; in [5], 1870 nM; in [6], 3700 nM. Moreover, the GI50 was 11400 nM in [7], 4270 nM in [8], 2420 nM in assay [9] and 1.77 µM in assay [10]. In addition, the TGI in assay [1] was above 48.2 µM; in assay [2], 27.3 µM; in assay [3], 22.6 µM; in assay [4], 2.91 µM; in assay [5], 5.8 µM; in [6], 14.7 µM. Besides, the TGI in [7] was 25.9 µM; in assay [8], 8.47 µM; in [9], 9.76 µM; in [10], 3.7 µM.

On to `COC(=O)C1=C(c2ccc3c(c2)OCO3)O[C@H](c2cc(OC)c(OC)c(OC)c2)[C@H]1COC(C)=O`, for which the TGI is 66.8 µM in assay [1]; 36 µM in assay [2]; 81 µM in assay [3]; 55.3 µM in assay [4]; 27.8 µM in [5]; above 100 µM in [6]. The TGI in assay [7] is 11.4 µM; in assay [8] it was 7.83 µM; in assay [9], above 100 µM; in assay [10], 56 µM.

For `COc1ccc(N(C)c2ncnc3occ(C)c23)cc1`, the GI50 in [1] is below 0.01 µM; in assay [2], 62.5 nM; in assay [3], below 10 nM; in assay [4], below 10 nM; in assay [5] it was below 10 nM; in [6] it was below 11.3 nM. In addition, the GI50 in [7] was below 10 nM; in assay [8], below 10 nM; in [9] it was below 10 nM; in assay [10], 29.6 µM. For the same compound, the TGI in assay [1] is above 100 µM; in assay [2], above 100 µM; in assay [3] it was above 100 µM; in assay [4] it was above 100 µM; in assay [5], 0.0481 µM; in [6], above 100 µM. Further, the TGI in assay [7] is above 100 µM; in [8], below 0.0149 µM; in assay [9] it was above 100 µM; in [10], above 100 µM.

`C=C(F)C(=O)N1CCN(c2nc(OC[C@@H]3CCCN3C)nc3c2CCN(c2cccc4cccc(Cl)c24)C3)C[C@@H]1CC#N`: the GI50 in [1] is 0.926 µM; in assay [2], 437 nM; in [3], 1310 nM; in [4], 1130 nM; in assay [5], 573 nM; in assay [6], 485 nM. Moreover, the GI50 was 1480 nM in assay [7], 1630 nM in assay [8], 992 nM in assay [9] and 1.57 µM in [10]. Further, the TGI amounted to 2.44 µM in [1]; 1.85 µM in assay [2]; 3.2 µM in assay [3]; 2.47 µM in assay [4]; 2.71 µM in assay [5]; 2.56 µM in assay [6]. For the same compound, the TGI amounted to 3.13 µM in assay [7], 3.06 µM in assay [8], 2.52 µM in assay [9] and 3.1 µM in assay [10].

For the compound `CNCCNc1c2c(c(NCCNC)c3c(CN(C)C)c[nH]c13)C(=O)c1ccccc1C2=O`, the GI50 was 4.71 µM in assay [1]; 1020 nM in assay [2]; 933 nM in assay [3]; 2350 nM in assay [4]; 434 nM in assay [5]; 2950 nM in assay [6]. Further, the GI50 in assay [7] is 1590 nM; in assay [8] it was 2980 nM; in assay [9], 1310 nM; in [10] it was 20.1 µM. For the same compound, the TGI in [1] amounted to 16.8 µM; in assay [2], 5.33 µM; in assay [3] it was 12.9 µM; in [4], 6.04 µM; in [6], 13.9 µM; in [7], 9.16 µM. Also, the figures for the TGI in assay [8], in assay [9] and in assay [10] were 14.2 µM, 11 µM and 45.7 µM, respectively.

As for `O=c1nc2occc2cn1C1CC(O)C(CO)O1` (centres undefined), the TGI in [1], in assay [2], in assay [3], in assay [4], in assay [5] and in assay [6] was above 100 µM throughout. For the same compound, the TGI in [7], in assay [8], in [9] and in assay [10] was above 100 µM in each case.

For `COC(=O)C12C3C4C1C1C2C3C41C(=O)OC(C)(C)C` (centres undefined), the TGI is above 100 µM in assay [1]; above 100 µM in assay [2]; above 100 µM in [3]; above 61.2 µM in [4]; above 100 µM in assay [5]; above 100 µM in assay [6]. The TGI in assay [7] is above 100 µM; in assay [8], above 100 µM; in assay [9] it was above 75 µM; in assay [10], above 100 µM.

Regarding `CC(=O)O.CC(=O)O.CC(=O)O.CC(=O)O.CC(=O)O.CC(=O)O.O.[Ti].[Ti]`, the GI50 in assay [1] is above 100 µM; in [2], above 100000 nM; in [3] it was above 100000 nM; in assay [4], above 100000 nM; in assay [5], above 100000 nM; in [6], above 100000 nM. The GI50 was above 100000 nM in assay [7], above 100000 nM in assay [8], above 100000 nM in assay [9] and above 100 µM in assay [10]. The TGI in [1], in [2], in assay [3], in assay [4], in assay [5] and in assay [6] was above 100 µM in each case. In addition, the TGI in [7], in [8], in assay [9] and in [10] was above 100 µM throughout.
